Values of other authors in patent publication US20100215736A1, “ORAL DOSAGE FORM PROVIDING FAST ADSORPTION OF DRUG” (NOVARTIS AG, priority 2007, published 2010).

Conditions: in vivo

tmax: 36 min
SMILES: CC(C)Cc1ccc(C(C)C(=O)[O-])cc1.O.O.[Na+] (stereo not shown) [ibuprofen sodium dihydrate salt]
